Consider two compounds from EP0542837B1, “PROPYLAMINE DERIVATIVES” (NORGINE LIMITED, priority 1990, dated 1992).

Like-named read-outs stand apart in the source and are kept apart here.

The subject of the experiment is Guinea-pig ileum muscle. Description: Antispasmodic activity: reduction of the acetylcholine contraction of isolated ileum in a gut bath. It counts as cell-based. On the procedure:
Antispasmodic activity was determined using standard methodology. (d) Guinea-pig ileum muscle was suspended in a gut bath, in oxygenated Tyrode's solution at 37°. Doses of acetylcholine were added to the gut bath fluid, the contraction recorded, and the bath washed out with fresh Tyrode's solution. This was carried out repeatedly to establish a dose of acetylcholine to cause a sub-maximal response. This dose of acetylcholine was used repeatedly, on a 2 minute cycle to establish steady responses. Doses of antispasmodic were then added 30 seconds before the acetylcholine dose to establish the magnitude of reduction of the acetylcholine contraction.

On to `CN1C2CCC1CC(OC(=O)C(CO)c1ccccc1)C2` (racemic) [atropine sulphate, reference compound], for which the “equivalent amount for antispasmodic activity” value is listed as 0.06 ng.

`CCN(CCCc1ccccc1)CCCc1ccc(O)cc1` [compound (II), N-ethyl, N-(3-phenylpropyl), 3-(4-hydroxyphenyl)-propylamine]: the “equivalent amount for antispasmodic activity” value (equi-active amounts of the amine hydrochloride and atropine sulphate, acetylcholine contraction, oxygenated Tyrode's solution at 37°) came out at 1.5 ng. For the same compound, the “antispasmodic activity times less than the standard” value (relative to atropine sulphate as standard, acetylcholine contraction, oxygenated Tyrode's solution at 37°, antispasmodic added 30 seconds before the acetylcholine dose) is “approximately 25 times”.
